Data reported in US9371335B2, “Spirothienopyran-piperidine derivatives as ORL-1 receptor antagonists for their use in the treatment of alcohol dependence and abuse” (Eli Lilly and Company, priority 2011, dated 2016).
Several values for one entry are separate records, joined by “and”; a condition that tells them apart may be missing. Equal values may be shown once.

Key:
[1] = tested on: Alcohol-Preferring (P) rats; assay: Operant ethanol self-administration in P rats (progressive ratio schedule); assay type: in vivo, rat; conditions: female P rats, 10 mg/kg oral
Description: Operant Self-Administration in P rats:
Female P rats are obtained and pair-housed from a private colony (Taconic, Germantown, N.Y.). In order to reduce novelty-induced avoidance of ethanol, the water bottle on the homecage is replaced with a bottle containing 15% ethanol in water (v/v, in water) for two days prior to operant training. Throughout the rest of the experiment, rats receive ad libitum access to water and standard laboratory chow, with no further access to ethanol in the homecage.
Rats are trained to press a lever for ethanol reinforcement in daily 30-min sessions conducted in standard rat operant chambers contained within sound-attenuating chambers (MED Associates, Inc., St. Albans, Vt.). The chambers consist of two stainless steel and two clear Plexiglas walls. The floor grid of the operant chambers consists of 0.5 cm diameter stainless steel bars placed approximately 1.5 cm apart. Each operant chamber contains two retractable operant levers located approximately 6 cm above the grid floor and 13 cm apart. A recessed trough is located in the space between the levers, through which a dipper cup (0.1 mL capacity) is raised to deliver response-contingent ethanol (15%, v/v, in water). Upon a reinforced response, a stimulus light is illuminated above the lever on which the response was made throughout the 4-sec dipper cup access. Operation of the stimuli and behavioral responses are controlled and recorded by personal computer for offline analysis (MED Associates, Inc., St. Albans, Vt.).
During operant training, responses on either lever are considered correct responses and are rewarded with 0.1 mL ethanol reinforcement. […] Once stable baseline responding is reached on an FR-1 schedule of reinforcement, the response contingency is increased to FR-2 and then again to FR-3 so that 3 lever presses are required for each reinforcement. […] Specifically, the response requirement is increased as follows: all rats begin each session at an FR-1 schedule of reinforcement; after three reinforcements, the schedule is increased to FR-2; after three reinforcements at that level, the schedule is increased by two to FR-4; after three reinforcements, the schedule is increased by two to FR-6; and so on (see for e.g. Oster S M, Toalston J E, Kuc K A, Pommer T J, Murphy J M, Lumeng L, Bell R L, McBride W J and Rodd Z A (2006) Effects of multiple alcohol deprivations on operant ethanol self-administration by high-alcohol-drinking replicate rat lines. Alcohol 38:155-164). Each session lasts a total of 30 min, after which, all stimuli are turned off and levers are retracted. […] The amount of ethanol consumed is calculated from the number of active lever presses, and converted into g/kg EtOH consumed. Rats receive oral administration of vehicle or test compound in the dose range of 3, 10, or 30 mg/kg (3 mL/kg dose volume, dissolved in a vehicle consisting of 20% Captisol® in 25 mM phosphate buffer at pH=2), or the nonselective opioid receptor antagonist naltrexone (10 mg/kg) as a positive control, 60 min. prior to the session, using a within-subjects, crossover design (3-4 day washout between subsequent doses). On a separate occasion, rats receive oral administration of vehicle or 30 mg/kg test compound (1 mL/kg dose volume, dissolved in a vehicle consisting of 20% Captisol® in 25 mM phosphate buffer), 30 min prior to the session, using a crossover design.

P rats = assay: Free-choice ethanol self-administration in P rats; assay type: in vivo, rat; conditions: for Mean EtOH Consumed in g/kg (Drug-treated) / Reduction vs. Vehicle (EtOH consumed): P rats, 12 hr
Description: Free-Choice Ethanol Self-Administration in Alcohol-Preferring Rats: P Rats:
In this procedure (modified from Rodd-Henricks Z A, McKinzie D L, Shaikh S R, Murphy J M, McBride W J, Lumeng L and Li T K (2000) Alcohol deprivation effect is prolonged in the alcohol preferring (P) rat after repeated deprivations. Alcohol Clin Exp Res 24:8-16), female P rats are obtained from a private colony (Taconic, Germantown, N.Y.), individually-housed with food, 15% ethanol (v/v, in water), and water available ad libitum, and maintained on a 12 hr. light/dark cycle (lights off at 16:00). The chambers are equipped with a force transduction system (TSE Systems, Bad Homburg, Germany) attached to the ethanol, water, and food receptacles to enable continuous monitoring of food and liquid consumption. Rats voluntarily consume 15% ethanol with a mean daily intake of roughly 5 g/kg for several months prior to drug testing. Rats are treated orally with vehicle or test compounds in the dose range of 3, 10, or 30 mg/kg (3 mL/kg dose volume, dissolved in a vehicle consisting of 20% Captisol® in 25 mM phosphate buffer at pH=2), or naltrexone (10 mg/kg, 1 mL/kg dose volume, dissolved in water) immediately prior to the onset of the dark cycle, using a within-subjects, crossover design (3-4 day washout between subsequent doses). In a separate experiment, rats receive oral administration of vehicle followed by 4 daily oral doses of vehicle or 30 mg/kg test compound immediately prior to the onset of the dark cycle, using a between-subjects design.

Structure (SMILES) | Reduction vs. Vehicle (lever presses) [1] [%] | Mean Number of Lever Presses (Drug-treated) ([1]; 30-min progressive ratio session) | Mean EtOH Consumed in g/kg (Drug-treated) (P rats; 10 mg/kg oral, 10 mg/kg) | Reduction vs. Vehicle (EtOH consumed) (P rats; 10 mg/kg oral, 10 mg/kg) | Mean EtOH Consumed in g/kg (Drug-treated) (P rats; 3 mg/kg oral) [g/kg] | Reduction vs. Vehicle (EtOH consumed) (P rats; 3 mg/kg oral) [%] | Mean EtOH Consumed in g/kg (Drug-treated) (P rats; 10 mg/kg oral) [g/kg] | Reduction vs. Vehicle (EtOH consumed) (P rats; 10 mg/kg oral) [%] | Mean EtOH Consumed in g/kg (Drug-treated) (P rats; 30 mg/kg oral) [g/kg] | Reduction vs. Vehicle (EtOH consumed) (P rats; 30 mg/kg oral) [%] | ethanol self-administration (P rats; free-choice access, P rats and msP rats, result in words)
O=C1CC[C@@]2(O)[C@H]3Cc4ccc(O)c5c4[C@@]2(CCN3CC2CC2)[C@H]1O5 [naltrexone, reference compound] | 75.4 | 106.33 | 3.30 g/kg and 2.83 g/kg and 3.31 g/kg | 30.2% and 45.0% and 36.0% |  |  |  |  |  |  | 
Cc1nn(-c2c(F)cccc2F)cc1CN1CCC2(CC1)OCC(F)(F)c1cc(Cl)sc12 [Compound 5, 2-chloro-1′-[[l-(2,6-difluorophenyl)-3-methyl-pyrazol-4-yl]methyl]-4,4-difluoro-spiro[5H-thieno[2,3-c]pyran-7,4′-piperidine]] |  |  |  |  | 4.39 | 15.0 | 4.05 | 21.5 | 3.74 | 27.6 | significantly reduce ethanol self-administration
